In US8440710B2, “HSL inhibitors useful in the treatment of diabetes” (Hoffmann-La Roche Inc., priority 2009, dated 2013):

Biological target: T1, human HSL (Homo sapiens, UniProt Q05469)
T1 construct: generate a full length human HSL ORF with a 3′-His6 tag; made in house; host or cells: High 5 insect cells (baculovirus, pFast-BAC)
T1 sequence (Q05469 1-1076): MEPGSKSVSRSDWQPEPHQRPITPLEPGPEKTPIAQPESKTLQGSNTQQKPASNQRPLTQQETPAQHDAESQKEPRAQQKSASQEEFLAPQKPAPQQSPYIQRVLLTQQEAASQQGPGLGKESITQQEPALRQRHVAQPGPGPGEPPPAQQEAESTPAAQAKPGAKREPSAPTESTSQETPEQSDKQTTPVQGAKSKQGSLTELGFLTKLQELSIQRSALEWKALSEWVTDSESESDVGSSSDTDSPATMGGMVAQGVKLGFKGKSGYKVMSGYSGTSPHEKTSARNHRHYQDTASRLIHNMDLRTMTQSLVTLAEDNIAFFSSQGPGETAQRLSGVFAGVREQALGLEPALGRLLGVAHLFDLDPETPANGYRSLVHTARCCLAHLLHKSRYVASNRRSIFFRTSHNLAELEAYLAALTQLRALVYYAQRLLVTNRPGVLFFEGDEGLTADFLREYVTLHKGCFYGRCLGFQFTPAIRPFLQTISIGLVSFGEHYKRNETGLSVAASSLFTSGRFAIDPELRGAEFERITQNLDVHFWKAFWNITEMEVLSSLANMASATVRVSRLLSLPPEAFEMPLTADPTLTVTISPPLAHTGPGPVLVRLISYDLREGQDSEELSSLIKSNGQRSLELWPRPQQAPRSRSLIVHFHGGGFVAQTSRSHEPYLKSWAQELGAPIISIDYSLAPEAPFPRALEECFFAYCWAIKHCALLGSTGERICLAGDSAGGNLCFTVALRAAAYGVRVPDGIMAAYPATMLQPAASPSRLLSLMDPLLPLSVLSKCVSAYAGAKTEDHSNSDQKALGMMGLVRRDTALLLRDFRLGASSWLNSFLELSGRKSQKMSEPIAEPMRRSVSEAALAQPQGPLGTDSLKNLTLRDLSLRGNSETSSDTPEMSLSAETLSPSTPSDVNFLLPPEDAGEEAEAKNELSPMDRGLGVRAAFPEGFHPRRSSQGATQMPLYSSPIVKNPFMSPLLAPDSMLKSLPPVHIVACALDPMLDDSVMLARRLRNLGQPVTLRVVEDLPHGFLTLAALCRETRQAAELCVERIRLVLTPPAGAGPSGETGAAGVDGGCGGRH
Experiment: Human Hormone-Sensitive Lipase (HSL) enzyme inhibition assay (colorimetric, DMPT substrate)
Format: biochemical
Conditions: human full length HSL-His6, 2,3-dimercapto-1-propanol tributyrate substrate, 37° C. 20 minutes, absorbance at 405 nm; read-out: HSL hum IC50
Outline: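 Full-length human HSL with C-terminal His6, expressed in baculovirus-infected High 5 cells and Ni-NTA purified, was added (15 ug/ml stock) to 1.5 mM DMPT in 100 mM MOPS pH 7.2, 0.2 mg/ml fatty acid-free BSA containing compound. After 20 min at 37 °C, DTNB with SDS/Triton X-100 was added; A405 read after 15 min at RT.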

Row | SMILES | IC50 [nM]
1 | CC(C)Oc1ccc(N2CC[C@]3(CC[C@@](O)(c4cnn[nH]4)CC3)C2=O)cc1 [Example 374, (5α,8α)-8-hydroxy-2-(4-isopropoxyphenyl)-8-(1H-1,2,3-triazol-4-yl)-2-azaspiro[4.5]decan-1-one] | 400
2 | CCc1ccc(CCN2CC[C@]3(CC[C@@](O)(COC(C)C)CC3)C2=O)cc1 [Example 375, (5α,8α)-2-[2-(4-Ethyl-phenyl)-ethyl]-8-hydroxy-8-isopropoxymethyl-2-aza-spiro[4.5]decan-1-one] | 14.2
